Where a name gives a salt, the structure may show the parent alone.
Tested on: spontaneously beating right atrium
Assay: Effect of compounds on the spontaneous beating rate of the right atrium in the rat
Conditions: Rattus norvegicus, 0.25 h
Experimental: Male WISTAR rats weighing from 325 to 375 g are anaesthetised by ip injection of pentobarbital sodium (30 mg/kg). The heart is rapidly excised and placed in a physiological solution at 4° C. which contains (in mM): NaCl 120.3, KCl 4.8, CaCl2 2.5, KH2PO4 1.0, MgSO4 1.3, NaHCO3 24.2, glucose 11.1, Ca-EDTA 0.016, and which is oxygenated (carbogene 95% O2+5% CO2), pH 7.4. The right atrium (RA), which beats spontaneously, is isolated, placed in a basin, thermostatically controlled at 35° C., containing 20 ml of physiological solution and connected to an isometric tension sensor (model IT-25, EMKA Technologies, Paris, France). The initial tension is set at 0.4 g. The spontaneous beating rate is measured by IOX software (EMKA Technologies, Paris, France). Preparations whose spontaneous beating rate is not between 200 and 300 beats per minute are excluded.
The compounds are dissolved daily at 10^−2M. The following dilutions are stored in ice over the duration of the experiment.
After stabilisation for 30 minutes, the compound under test is added to the medium in cumulative manner every 15 minutes (4 concentrations). The reductions in beating rate are expressed as a percentage relative to the initial rate. The concentration that reduces the initial beating rate by 30% (IC30) is calculated and expressed in terms of molarity (μM).

Row | Compound | IC30 [nM]
1 | CNC(=O)Oc1ccc2c(c1)CC2CN(C)CCC(=O)N1CCc2cc(OC)c(OC)cc2CC1 (stereo not shown) [Example 44, 7-{[[3-(7,8-Dimethoxy-1,2,4,5-tetrahydro-3H-3-benzazepin-3-yl)-3-oxopropyl](methyl)amino]methyl}bicyclo[4.2.0]octa-1,3,5-trien-3-yl methylcarbamate hydrochloride] | 800
2 | CNC(=O)Oc1ccc2c(c1)C(CN(C)CCC(=O)N1CCc3cc(OC)c(OC)cc3CC1)C2 (stereo not shown) [Example 46, 8-{[[3-(7,8-Dimethoxy-1,2,4,5-tetrahydro-3H-3-benzazepin-3-yl)-3-oxopropyl](methyl)amino]methyl}bicyclo[4.2.0]octa-1,3,5-trien-3-yl methylcarbamate hydrochloride] | 500
3 | COc1cc2c(cc1OC)CCN(C(=O)CCN(C)CC1Cc3cc(OC(=O)N(C)C)ccc31)CC2 (stereo not shown) [Example 47, 7-{[[3-(7,8-Dimethoxy-1,2,4,5-tetrahydro-3H-3-benzazepin-3-yl)-3-oxopropyl](methyl)amino]methyl}bicyclo[4.2.0]octa-1,3,5-trien-3-yl dimethylcarbamate hydrochloride] | 600
4 | COc1cc2c(cc1OC)CCN(C(=O)CCN(C)CC1Cc3ccc(OC(=O)N(C)C)cc31)CC2 (stereo not shown) [Example 50, 8-{[[3-(7,8-Dimethoxy-1,2,4,5-tetrahydro-3H-3-benzazepin-3-yl)-3-oxopropyl](methyl)amino]methyl}bicyclo[4.2.0]octa-1,3,5-trien-3-yl dimethylcarbamate hydrochloride] | 500
5 | COc1cc2c(cc1OC)CCN(C(=O)CCNCC1Cc3ccc(OC(=O)N(C)C)cc31)CC2 (stereo not shown) [Example 53, 8-{[[3-(7,8-Dimethoxy-1,2,4,5-tetrahydro-3H-3-benzazepin-3-yl)-3-oxopropyl]amino]methyl}bicyclo[4.2.0]octa-1,3,5-trien-3-yl dimethylcarbamate hydrochloride] | 1800
6 | COc1cc2c(cc1OC)CCN(C(=O)CCNCC1Cc3cc(OC(=O)N(C)C)ccc31)CC2 (stereo not shown) [Example 54, 7-{[[3-(7,8-Dimethoxy-1,2,4,5-tetrahydro-3H-3-benzazepin-3-yl)-3-oxopropyl]amino]methyl}bicyclo[4.2.0]octa-1,3,5-trien-3-yl dimethylcarbamate hydrochloride] | 800
7 | CCN(CC)C(=O)Oc1ccc2c(c1)CC2CN(C)CCC(=O)N1CCc2cc(OC)c(OC)cc2CC1 (stereo not shown) [Example 71, 7-{[[3-(7,8-Dimethoxy-1,2,4,5-tetrahydro-3H-3-benzazepin-3-yl)-3-oxopropyl](methyl)amino]methyl}bicyclo[4.2.0]octa-1,3,5-trien-3-yl diethylcarbamate hydrochloride] | 1800
8 | COc1cc2c(cc1OC)CCN(C(=O)CCN(C)CC1Cc3cc(OC(=O)N4CCCC4)ccc31)CC2 (stereo not shown) [Example 73, 7-{[[3-(7,8-Dimethoxy-1,2,4,5-tetrahydro-3H-3-benzazepin-3-yl)-3-oxopropyl](methyl)amino]methyl}bicyclo[4.2.0]octa-1,3,5-trien-3-yl 1-pyrrolidinecarboxylate hydrochloride] | 2400

Same assay, conditions: Rattus norvegicus, 0.25 h; concentration that reduces the initial spontaneous beating rate by 30%; isolated right atrium of male WISTAR rats, 35° C., compound added cumulatively every 15 minutes (4 concentrations); read-out: IC30

Row | Compound | IC30 [nM]
9 | COc1cc2c(cc1OC)CCN(C(=O)CCN(C)C[C@H]1Cc3cc(OC)c(OC)cc31)CC2 [Example 3a, N-{[(7S)-3,4-Dimethoxybicyclo[4.2.0]octa-1,3,5-trien-7-yl]methyl}-3-(7,8-dimethoxy-1,2,4,5-tetrahydro-3H-3-benzazepin-3-yl)-N-methyl-3-oxopropan-1-amine hydrochloride] | 1300
10 | COc1cc2c(cc1OC)CCN(C(=O)CCNC[C@H]1Cc3cc(OC)c(OC)cc31)CC2 [Example 4, N-{[(7S)-3,4-Dimethoxybicyclo[4.2.0]octa-1,3,5-trien-7-yl]methyl}-3-(7,8-dimethoxy-1,2,4,5-tetrahydro-3H-3-benzazepin-3-yl)-3-oxopropan-1-amine hydrochloride] | 1400
11 | COc1cc2c(cc1OC)CCN(C(=O)CCN(C)CC1Cc3cc(OC)c(OC)cc3C1)CC2 [Example 7, N-[(5,6-Dimethoxy-2,3-dihydro-1H-inden-2-yl)methyl]-3-(7,8-dimethoxy-1,2,4,5-tetrahydro-3H-3-benzazepin-3-yl)-N-methyl-3-oxopropan-1-amine hydrochloride] | 1700
12 | CCOc1ccc2c(c1)CC2CNCCC(=O)N1CCc2cc(OC)c(OC)cc2CC1 (stereo not shown) [Example 14, 3-(7,8-Dimethoxy-1,2,4,5-tetrahydro-3H-3-benzazepin-3-yl)-N-[(3-ethoxybicyclo[4.2.0]octa-1,3,5-trien-7-yl)methyl]-3-oxopropan-1-amine hydrochloride] | 1000
13 | COc1cc2c(cc1OC)CCN(C(=O)CCN(CC1CC1)C[C@H]1Cc3cc(OC)c(OC)cc31)CC2 [Example 22, N-(Cyclopropylmethyl)-N-{[(7S)-3,4-dimethoxybicyclo[4.2.0]octa-1,3,5-trien-7-yl]methyl}-3-(7,8-dimethoxy-1,2,4,5-tetrahydro-3H-3-benzazepin-3-yl)-3-oxopropan-1-amine hydrochloride] | 800
14 | C=CCN(CCC(=O)N1CCc2cc(OC)c(OC)cc2CC1)C[C@H]1Cc2cc(OC)c(OC)cc21 [Example 23, N-Allyl-N-{[(7S)-3,4-dimethoxybicyclo[4.2.0]octa-1,3,5-trien-7-yl]methyl}-3-(7,8-dimethoxy-1,2,4,5-tetrahydro-3H-3-benzazepin-3-yl)-3-oxopropan-1-amine hydrochloride] | 1400
15 | COc1cc2c(cc1OC)CCN(C(=O)CCN(C[C@H]1Cc3cc(OC)c(OC)cc31)C1CCCC1)CC2 [Example 27, N-Cyclopentyl-N-{[(7S)-3,4-dimethoxybicyclo[4.2.0]octa-1,3,5-trien-7-yl]methyl}-3-(7,8-dimethoxy-1,2,4,5-tetrahydro-3H-3-benzazepin-3-yl)-3-oxopropan-1-amine fumarate] | 1200
16 | COc1cc2c(cc1OC)CCN(C(=O)CCN(CC1CCCC1)C[C@H]1Cc3cc(OC)c(OC)cc31)CC2 [Example 28, N-(Cyclopentylmethyl)-N-{[(7S)-3,4-dimethoxybicyclo[4.2.0]octa-1,3,5-trien-7-yl]methyl}-3-(7,8-dimethoxy-1,2,4,5-tetrahydro-3H-3-benzazepin-3-yl)-3-oxopropan-1-amine hydrochloride] | 1200
17 | COc1cc2c(cc1OC)CCN(C(=O)CCN(CC1CCC1)C[C@H]1Cc3cc(OC)c(OC)cc31)CC2 [Example 29, N-(Cyclobutylmethyl)-N-{[(7S)-3,4-dimethoxybicyclo[4.2.0]octa-1,3,5-trien-7-yl]methyl}-3-(7,8-dimethoxy-1,2,4,5-tetrahydro-3H-3-benzazepin-3-yl)-3-oxopropan-1-amine fumarate] | 400
18 | COc1ccc2c(c1)CCN(C(=O)CCN(C)C[C@H]1Cc3cc(OC)c(OC)cc31)CC2 [Example 34, N-{[(7S)-3,4-Dimethoxybicyclo[4.2.0]octa-1,3,5-trien-7-yl]methyl}-3-(7-methoxy-1,2,4,5-tetrahydro-3H-3-benzazepin-3-yl)-N-methyl-3-oxopropan-1-amine hydrochloride] | 1300
19 | COc1cc2c(cc1C)C(CN(C)CCC(=O)N1CCc3cc(OC)c(OC)cc3CC1)C2 (stereo not shown) [Example 74, 3-(7,8-Dimethoxy-1,2,4,5-tetrahydro-3H-3-benzazepin-3-yl)-N-{[3-methoxy-4-methyl-bicyclo[4.2.0]octa-1,3,5-trien-7-yl]methyl}-N-methyl-3-oxopropan-1-amine hydrochloride] | 1000
20 | COc1cc2c(cc1C)CC2CN(C)CCC(=O)N1CCc2cc(OC)c(OC)cc2CC1 (stereo not shown) [Example 76, 3-(7,8-Dimethoxy-1,2,4,5-tetrahydro-3H-3-benzazepin-3-yl)-N-{[4-methoxy-3-methyl-bicyclo[4.2.0]octa-1,3,5-trien-7-yl]methyl}-N-methyl-3-oxopropan-1-amine hydrochloride] | 1600

Same assay, conditions: concentration that reduces the initial spontaneous beating rate by 30%; isolated right atrium of male WISTAR rats, 35° C., compound added cumulatively every 15 minutes (4 concentrations); read-out: IC30

Row | Compound | IC30 [nM]
21 | 7-({[3-(7,8-Dimethoxy-1,2,4,5-tetrahydro-3H-3-benzazepin-3-yl)-3-oxopropyl](methyl)amino}methyl)bicyclo[4.2.0]octa-1,3,5-trien-3-yl hexahydrocyclopenta[c]pyrrole-2(1H)-carboxylate (cis compound) [Example 78] | 2000
22 | COc1cc2c(cc1OC)CCN(C(=O)CCN(C)CC1Cc3cc(OC(=O)N(C)C)ccc31)CC2.Cl (single isomer, unassigned; (-)) [Example 48, (−) enantiomer of 7-{[[3-(7,8-dimethoxy-1,2,4,5-tetrahydro-3H-3-benzazepin-3-yl)-3-oxopropyl](methyl)amino]methyl}bicyclo[4.2.0]octa-1,3,5-trien-3-yl dimethylcarbamate hydrochloride] | 500
